Test results published in ChEMBL document CHEMBL5584327, “Phenylstyrylpyrimidine derivatives as potential multipotent therapeutics for Alzheimer's disease” (RSC Med Chem, 2024).
Active and inactive are the calls of the source. No cut-off for these calls is given here.

Assays:
[1] = molecular target: T1, Amine oxidase [flavin-containing] B (Homo sapiens, UniProt P27338); assay: Inhibition of human MAO-B using p-tyramine as substrate preincubated for 15 mins followed by substrate addition and measured after 30 mins by Amplex Red reagent based fluorescence analysis
T1 sequence (P27338 whole entry): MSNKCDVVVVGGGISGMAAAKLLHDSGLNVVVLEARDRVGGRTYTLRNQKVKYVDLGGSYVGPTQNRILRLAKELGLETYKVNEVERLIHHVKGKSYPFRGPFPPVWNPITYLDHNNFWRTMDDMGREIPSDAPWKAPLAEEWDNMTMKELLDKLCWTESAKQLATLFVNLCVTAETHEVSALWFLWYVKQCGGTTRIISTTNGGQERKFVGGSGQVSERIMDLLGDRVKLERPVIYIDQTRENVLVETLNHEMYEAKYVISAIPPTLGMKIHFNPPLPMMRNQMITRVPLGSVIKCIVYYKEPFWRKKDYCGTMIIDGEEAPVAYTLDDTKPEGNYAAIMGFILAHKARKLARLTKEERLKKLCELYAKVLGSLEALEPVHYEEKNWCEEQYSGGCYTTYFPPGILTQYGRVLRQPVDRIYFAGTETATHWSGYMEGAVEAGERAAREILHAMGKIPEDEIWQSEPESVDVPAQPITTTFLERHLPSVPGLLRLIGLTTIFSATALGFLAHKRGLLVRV

[2] = molecular target: T2, Amine oxidase [flavin-containing] A (Homo sapiens, UniProt P21397); assay: Inhibition of human MAO-A at 10 uM using p-tyramine as substrate incubated for 30 mins by Amplex Red reagent based fluorescence analysis relative to control; conditions: 0.5 h
T2 sequence (P21397 whole entry): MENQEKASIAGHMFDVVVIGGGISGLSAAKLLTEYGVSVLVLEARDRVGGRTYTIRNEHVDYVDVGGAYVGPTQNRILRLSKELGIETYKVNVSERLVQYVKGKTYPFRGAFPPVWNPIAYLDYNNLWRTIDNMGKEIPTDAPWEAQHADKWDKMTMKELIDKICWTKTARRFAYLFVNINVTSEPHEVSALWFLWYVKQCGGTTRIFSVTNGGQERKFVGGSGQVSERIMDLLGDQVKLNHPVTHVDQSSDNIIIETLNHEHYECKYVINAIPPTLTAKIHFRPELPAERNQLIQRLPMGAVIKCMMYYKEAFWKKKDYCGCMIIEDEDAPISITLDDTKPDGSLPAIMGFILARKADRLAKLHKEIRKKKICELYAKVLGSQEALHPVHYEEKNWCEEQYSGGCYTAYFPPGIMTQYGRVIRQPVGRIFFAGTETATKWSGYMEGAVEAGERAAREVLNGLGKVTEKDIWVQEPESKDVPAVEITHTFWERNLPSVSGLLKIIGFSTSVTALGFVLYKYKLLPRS

[3] = molecular target: T1, Amine oxidase [flavin-containing] B; assay: Inhibition of human MAO-B at 10 uM using p-tyramine as substrate incubated for 30 mins by Amplex Red reagent based fluorescence analysis relative to control; conditions: 0.5 h
[4] = molecular target: Acetylcholinesterase (Electrophorus electricus) (UniProt O42275); assay: Inhibition of electric eel AChE at 20 uM using acetylthiocholine iodide as substrate incubated for 30 min by DTNB reagent based Ellman's method relative to control
Acetylcholinesterase (Electrophorus electricus), sequence (O42275 24-633 limits assumed): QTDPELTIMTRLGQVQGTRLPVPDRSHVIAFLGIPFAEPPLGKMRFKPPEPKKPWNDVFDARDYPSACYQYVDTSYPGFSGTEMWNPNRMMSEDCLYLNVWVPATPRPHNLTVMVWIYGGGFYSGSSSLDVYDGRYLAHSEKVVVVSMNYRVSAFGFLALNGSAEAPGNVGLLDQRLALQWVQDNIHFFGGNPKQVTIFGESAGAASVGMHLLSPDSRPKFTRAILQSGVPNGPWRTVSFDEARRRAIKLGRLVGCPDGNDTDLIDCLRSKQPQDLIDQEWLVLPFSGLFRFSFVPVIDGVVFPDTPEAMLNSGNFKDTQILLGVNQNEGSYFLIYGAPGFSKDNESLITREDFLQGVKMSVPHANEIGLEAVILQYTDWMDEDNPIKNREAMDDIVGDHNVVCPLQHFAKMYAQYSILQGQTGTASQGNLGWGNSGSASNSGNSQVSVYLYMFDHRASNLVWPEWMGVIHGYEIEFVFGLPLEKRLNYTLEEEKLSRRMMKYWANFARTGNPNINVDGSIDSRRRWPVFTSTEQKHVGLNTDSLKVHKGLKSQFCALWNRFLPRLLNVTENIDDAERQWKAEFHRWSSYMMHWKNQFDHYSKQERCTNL

[5] = molecular target: Cholinesterase (Equus caballus) (UniProt P81908); assay: Inhibition of equine BuChE at 20 uM using butyryl-thiocholine iodide as substrate incubated for 30 min by DTNB reagent based Ellman's method relative to control
Cholinesterase (Equus caballus), sequence (P81908 whole entry): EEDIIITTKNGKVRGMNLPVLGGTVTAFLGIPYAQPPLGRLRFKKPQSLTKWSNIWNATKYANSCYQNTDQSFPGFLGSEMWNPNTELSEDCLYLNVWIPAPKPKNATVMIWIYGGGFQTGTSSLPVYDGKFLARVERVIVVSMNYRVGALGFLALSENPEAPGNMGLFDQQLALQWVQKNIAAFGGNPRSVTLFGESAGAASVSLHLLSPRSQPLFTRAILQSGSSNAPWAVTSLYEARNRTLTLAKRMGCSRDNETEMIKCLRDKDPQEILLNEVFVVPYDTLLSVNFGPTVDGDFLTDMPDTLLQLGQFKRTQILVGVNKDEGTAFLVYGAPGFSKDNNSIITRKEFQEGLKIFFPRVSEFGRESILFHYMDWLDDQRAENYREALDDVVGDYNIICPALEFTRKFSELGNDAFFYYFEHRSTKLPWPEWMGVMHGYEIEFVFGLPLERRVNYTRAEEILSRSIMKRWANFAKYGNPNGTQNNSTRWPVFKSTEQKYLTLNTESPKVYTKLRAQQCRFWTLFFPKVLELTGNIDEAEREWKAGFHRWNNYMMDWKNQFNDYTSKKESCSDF

[6] = molecular target: T1, Amine oxidase [flavin-containing] B; assay: Inhibition of MAO-B (unknown origin)
[7] = molecular target: Acetylcholinesterase (Homo sapiens, UniProt P22303); assay: Inhibition of AChE (unknown origin)
Acetylcholinesterase (Homo sapiens, UniProt P22303), sequence (P22303 whole entry): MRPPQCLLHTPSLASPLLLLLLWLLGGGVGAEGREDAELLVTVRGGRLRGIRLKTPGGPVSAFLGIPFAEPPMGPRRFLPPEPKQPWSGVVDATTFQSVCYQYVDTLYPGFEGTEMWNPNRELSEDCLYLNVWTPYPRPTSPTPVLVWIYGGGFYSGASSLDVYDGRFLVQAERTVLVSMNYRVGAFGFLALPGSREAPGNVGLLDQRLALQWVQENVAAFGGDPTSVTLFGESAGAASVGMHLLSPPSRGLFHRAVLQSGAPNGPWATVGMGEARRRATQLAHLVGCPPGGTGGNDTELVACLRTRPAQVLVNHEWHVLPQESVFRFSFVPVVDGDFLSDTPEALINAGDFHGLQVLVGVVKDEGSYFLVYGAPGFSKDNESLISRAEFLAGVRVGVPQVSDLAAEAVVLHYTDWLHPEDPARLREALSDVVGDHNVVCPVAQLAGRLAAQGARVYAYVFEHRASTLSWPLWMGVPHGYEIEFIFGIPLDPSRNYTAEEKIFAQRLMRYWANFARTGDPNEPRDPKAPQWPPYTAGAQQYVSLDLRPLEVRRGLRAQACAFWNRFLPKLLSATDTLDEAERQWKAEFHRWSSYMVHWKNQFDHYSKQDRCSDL

[8] = Inhibition of MAO (unknown origin); parameters: species or system Homo sapiens
[9] = molecular target: Amyloid-beta precursor protein (Homo sapiens) (UniProt P05067); assay: Inhibition of amyloid beta (1 to 42) (unknown origin) aggregation at 10 uM incubated for 24 hrs by ThT assay relative to control
Amyloid-beta precursor protein (Homo sapiens), sequence (P05067 whole entry): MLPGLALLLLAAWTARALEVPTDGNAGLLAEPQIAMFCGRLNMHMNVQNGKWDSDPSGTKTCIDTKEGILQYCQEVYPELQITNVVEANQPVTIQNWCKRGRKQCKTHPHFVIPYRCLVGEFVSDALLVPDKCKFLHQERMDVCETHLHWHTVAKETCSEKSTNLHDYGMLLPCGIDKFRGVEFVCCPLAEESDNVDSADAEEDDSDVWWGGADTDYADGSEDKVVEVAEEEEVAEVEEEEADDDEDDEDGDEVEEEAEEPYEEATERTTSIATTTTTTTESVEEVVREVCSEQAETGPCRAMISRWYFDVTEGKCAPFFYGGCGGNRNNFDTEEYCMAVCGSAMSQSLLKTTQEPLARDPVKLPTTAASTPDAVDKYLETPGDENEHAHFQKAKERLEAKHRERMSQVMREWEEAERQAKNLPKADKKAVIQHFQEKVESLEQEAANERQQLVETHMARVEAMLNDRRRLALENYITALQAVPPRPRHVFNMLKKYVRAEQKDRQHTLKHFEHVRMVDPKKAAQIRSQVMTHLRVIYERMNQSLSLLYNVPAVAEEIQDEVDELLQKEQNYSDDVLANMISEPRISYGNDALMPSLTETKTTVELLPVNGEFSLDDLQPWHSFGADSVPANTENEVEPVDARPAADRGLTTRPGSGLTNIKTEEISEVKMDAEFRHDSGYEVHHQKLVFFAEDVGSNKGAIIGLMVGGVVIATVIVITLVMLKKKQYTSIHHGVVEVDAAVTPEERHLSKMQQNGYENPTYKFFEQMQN

[10] = molecular target: Cholinesterase (Equus caballus) (UniProt P81908); assay: Inhibition of equine BuChE at 25 uM using butyryl-thiocholine iodide as substrate incubated for 30 min by DTNB reagent based Ellman's method
[11] = molecular target: T1, Amine oxidase [flavin-containing] B; assay: Inhibition of human MAO-B using p-tyramine as substrate incubated for 30 mins by Amplex Red reagent based fluorescence analysis
[12] = molecular target: Acetylcholinesterase (Electrophorus electricus, UniProt O42275); assay: Inhibition of electric eel AChE using acetylthiocholine iodide as substrate incubated for 30 min by DTNB reagent based Ellman's method
Acetylcholinesterase (Electrophorus electricus, UniProt O42275), sequence (O42275 whole entry): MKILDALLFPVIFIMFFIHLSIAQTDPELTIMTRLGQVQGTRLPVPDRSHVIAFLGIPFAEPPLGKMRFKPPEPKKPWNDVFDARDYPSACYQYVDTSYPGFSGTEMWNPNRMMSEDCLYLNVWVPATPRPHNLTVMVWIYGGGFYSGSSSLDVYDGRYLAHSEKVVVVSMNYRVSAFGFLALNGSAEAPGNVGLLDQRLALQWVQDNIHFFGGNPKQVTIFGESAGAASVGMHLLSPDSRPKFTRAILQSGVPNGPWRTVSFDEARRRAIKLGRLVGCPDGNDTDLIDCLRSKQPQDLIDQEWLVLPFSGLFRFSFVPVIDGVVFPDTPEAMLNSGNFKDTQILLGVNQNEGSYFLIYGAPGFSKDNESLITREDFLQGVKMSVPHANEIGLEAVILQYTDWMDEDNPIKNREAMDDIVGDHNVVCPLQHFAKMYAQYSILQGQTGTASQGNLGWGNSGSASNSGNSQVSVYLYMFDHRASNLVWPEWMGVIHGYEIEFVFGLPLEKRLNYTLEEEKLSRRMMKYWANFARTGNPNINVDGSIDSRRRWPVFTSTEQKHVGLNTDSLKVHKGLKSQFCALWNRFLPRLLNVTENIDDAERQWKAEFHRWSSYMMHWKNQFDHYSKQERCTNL

[13] = molecular target: Acetylcholinesterase (Electrophorus electricus) (UniProt O42275); assay: (§1) Reversible inhibition of electric eel AChE assessed as residual activity at 10 time IC50 concentration using acetylthiocholine iodide as substrate incubated for 30 min followed by 100-fold dilution with substrate and buffer solutions by DTNB reagent based Ellman's method (reference value: 100 +/- 0.37%)
[14] = Cytotoxicity against human SH-SY5Y cells assessed as cell viability at 25 uM by MTT assay (reference value: 100 +/- 0.22); type: toxicity, cell-based; conditions: read-out: Activity
[15] = Cytotoxicity against human SH-SY5Y cells assessed as cell viability at 1 uM by MTT assay (reference value: 100 +/- 0.22); type: toxicity, cell-based; conditions: read-out: Activity
[16] = molecular target: Acetylcholinesterase (Electrophorus electricus) (UniProt O42275); assay: as §1, with “at 100” for “at 10”
[17] = molecular target: Acetylcholinesterase (Electrophorus electricus) (UniProt O42275); assay: Non-competitive inhibition of electric eel AChE assessed as increase in Km using acetylthiocholine iodide as substrate incubated for 30 min by Ellman's method based Lineweaver-Burk plot analysis
[18] = molecular target: Acetylcholinesterase (Electrophorus electricus) (UniProt O42275); assay: Inhibition of electric eel AChE assessed as residual activity at 100 time IC50 concentration using acetylthiocholine iodide as substrate incubated for 30 min by DTNB reagent based Ellman's method (reference value: 100 +/- 0.37%)
[19] = molecular target: T1, Amine oxidase [flavin-containing] B; assay: Reversible inhibition of human MAO-B assessed as residual activity at 10 time IC50 concentration using p-tyramine as substrate incubated for 30 mins followed by 100-fold dilution with substrate and buffer solutions by Amplex Red reagent based fluorescence analysis (reference value: 100 +/- 0.37%); conditions: 0.5 h
[20] = molecular target: Acetylcholinesterase (Electrophorus electricus) (UniProt O42275); assay: Inhibition of electric eel AChE assessed as residual activity at 10 time IC50 concentration using acetylthiocholine iodide as substrate incubated for 30 min by DTNB reagent based Ellman's method (reference value: 100 +/- 0.37%)
[21] = Cytotoxicity against human SH-SY5Y cells assessed as cell viability at 5 uM by MTT assay (reference value: 100 +/- 0.22); type: toxicity, cell-based; conditions: read-out: Activity
[22] = molecular target: T1, Amine oxidase [flavin-containing] B; assay: Inhibition of human MAO-B assessed as residual activity at 10 time IC50 concentration using p-tyramine as substrate incubated for 30 mins by Amplex Red reagent based fluorescence analysis (reference value: 100 +/- 0.37%); conditions: 0.5 h
[23] = molecular target: Acetylcholinesterase (Electrophorus electricus) (UniProt O42275); assay: Non-competitive inhibition of electric eel AChE assessed as decrease in Vmax using acetylthiocholine iodide as substrate incubated for 30 min by Ellman's method based Lineweaver-Burk plot analysis
[24] = molecular target: Amyloid-beta precursor protein (Homo sapiens) (UniProt P05067); assay: Inhibition of amyloid beta (1 to 42) (unknown origin) aggregation at 10 uM incubated for 48 hrs by ThT assay relative to control
[25] = molecular target: T1, Amine oxidase [flavin-containing] B; assay: Inhibition of human MAO-B assessed as residual activity at 100 time IC50 concentration using p-tyramine as substrate incubated for 30 mins by Amplex Red reagent based fluorescence analysis (reference value: 100 +/- 0.37%); conditions: 0.5 h
[26] = molecular target: T1, Amine oxidase [flavin-containing] B; assay: Reversible inhibition of human MAO-B assessed as residual activity at 100 time IC50 concentration using p-tyramine as substrate incubated for 30 mins followed by 100-fold dilution with substrate and buffer solutions by Amplex Red reagent based fluorescence analysis (reference value: 100 +/- 0.37%); conditions: 0.5 h
[27] = molecular target: T2, Amine oxidase [flavin-containing] A; assay: Inhibition of human MAO-A at 25 uM using p-tyramine as substrate incubated for 30 mins by Amplex Red reagent based fluorescence analysis; conditions: 0.5 h

Structure (SMILES) | inhibition at 10 µM [2] | inhibition at 10 µM [3] | inhibition [4] | inhibition [5] | other results
C#CCOc1ccccc1-c1cc(-c2ccc(Cl)cc2)nc(-c2ccccc2)n1 |  |  |  |  | IC50 [1]: 0.48 µM
C#CCOc1cccc(-c2cc(/C=C/c3ccccc3)nc(C)n2)c1 | 15.5% | 2.96% | 61.6% | 3.17% | 
C#CCNc1ccccc1-c1cc(-c2ccc(OCCN3CCCCC3)cc2)nc(N)n1 |  |  |  |  | IC50 [6]: 0.37 µM; IC50 [7]: 40 µM
N#Cc1cccnc1N1CCN(c2cc(Oc3cccc4cccnc34)ncn2)CC1 |  |  |  |  | IC50 [7]: 0.036 µM
C#CCOc1cccc(-c2cc(/C=C/c3ccccc3)nc(-c3ccccc3)n2)c1 | 0.4% | 4.89% | 69.6% | 1.5% | 
C#CCOc1ccccc1-c1cc(/C=C/c2ccccc2)nc(-c2ccccc2)n1 | 9.57% | 3.49% | 64.2% | 3.6% | 
C#CCOc1ccc(-c2cc(/C=C/c3ccccc3)nc(N)n2)cc1 | 8.61% | 9.28% | 68.5% | 2.12% | 
O=C1c2ccccc2-c2cnc(-c3ccccc3)nc21 |  |  |  |  | IC50 [8]: 2.37 µM
C#CCOc1ccc(-c2cc(/C(C)=C/c3ccccc3)nc(N)n2)cc1 | 8.66% | 1.79% | 71.3% | 3.04% | 
Oc1ccc(/C=C/c2cc(O)cc(O)c2)cc1 |  |  |  |  | inhibition [9]: 54.6%
C#CCOc1cccc(-c2cc(/C(C)=C/c3ccccc3)ncn2)c1 | 0.87% | 23.4% | 65.7% |  | inhibition [10]: inactive
C#CCOc1cccc(-c2cc(/C(C)=C\c3ccccc3)nc(N)n2)c1 | 12% | 69.7% | 66.3% | 7.03% | IC50 [11]: 8.15 µM; IC50 [12]: 8.48 µM
C#CCOc1ccc(-c2cc(-c3ccc(OCC#C)cc3)nc(N)n2)cc1 |  |  |  |  | IC50 [7]: 1.35 µM
C#CCOc1ccc(-c2cc(/C=C/c3ccccc3)nc(N)n2)cc1C | 13.1% | 11.9% | 62.6% |  | inhibition [10]: inactive
C#CCOc1ccc(-c2cc(/C=C/c3ccccc3)nc(C)n2)cc1C | 0.96% | 0.27% | 67% |  | inhibition [10]: inactive
C#CCOc1cccc(-c2cc(/C=C/c3ccccc3)ncn2)c1 | 13.9% | 76.4% | 69.2% | 6.43% | Activity [13]: 96.7%; viability at 25 µM [14]: 86.5%; viability at 1 µM [15]: 91%; Activity [16]: 47.9%; inhibition [17]: Active; Activity [18]: 13.6%; Activity [19]: 34.91%; Activity [20]: 5.18%; viability at 5 µM [21]: 90.7%; Activity [22]: 2.6%; inhibition [23]: Active; inhibition [24]: 33%; IC50 [11]: 4.93 µM; IC50 [12]: 9.02 µM; Activity [25]: 3.4%; inhibition [9]: 29.3%; Activity [26]: 36.72%
C#CCOc1ccc(-c2cc(/C=C/c3ccccc3)nc(C)n2)cc1 | 10% | 20.9% | 62.8% | 8.16% | 
C#CCOc1ccc(-c2cc(/C=C\c3ccccc3)ncn2)cc1 |  | 67.5% | 63.4% |  | inhibition (INH) [27]: Not Active; inhibition [10]: inactive; IC50 [11]: 10.9 µM; IC50 [12]: 7.49 µM
C#CCOc1ccc(-c2cc(/C=C/c3ccccc3)nc(-c3ccccc3)n2)cc1 | 20.9% | 7.18% | 70.2% | 3.6% | 
C#CCOc1ccc(-c2cc(/C(C)=C/c3ccccc3)nc(C)n2)cc1 | 10.9% | 15.7% | 60.5% |  | inhibition [10]: inactive
C#CCOc1ccc(-c2cc(/C(C)=C\c3ccccc3)ncn2)cc1 |  | 71.2% | 69% | 9.69% | Activity [13]: 97.1%; viability at 25 µM [14]: 95.7%; viability at 1 µM [15]: 98.1%; Activity [16]: 42.9%; inhibition [17]: Active; Activity [18]: 18.6%; Activity [19]: 30.37%; Activity [20]: 7.45%; inhibition (INH) [27]: Not Active; viability at 5 µM [21]: 96.3%; Activity [22]: 2.79%; inhibition [23]: Active; inhibition [24]: 23.2%; IC50 [11]: 7.26 µM; IC50 [12]: 9.29 µM; Activity [25]: 2.79%; inhibition [9]: 21.6%; Activity [26]: 36.07%
